Assay results from PMC4787089 (Pharmacognosy Magazine, 2015).
Like-named read-outs stand apart in the source and are kept apart here.

What was measured:
[1] = system: tested cancer cell lines (HepG2, Hep2, HCT116, RD, MCF7); assay: In vitro cytotoxicity, summary statements over tested cancer cell lines; assay type: cell-based, human
[2] = target: T1, recombinant HDAC8 (Homo sapiens, UniProt Q9BY41); assay: Histone deacetylase 8 inhibitory assay; assay type: biochemical; settings: 10 μM
T1 sequence (Q9BY41 1-377): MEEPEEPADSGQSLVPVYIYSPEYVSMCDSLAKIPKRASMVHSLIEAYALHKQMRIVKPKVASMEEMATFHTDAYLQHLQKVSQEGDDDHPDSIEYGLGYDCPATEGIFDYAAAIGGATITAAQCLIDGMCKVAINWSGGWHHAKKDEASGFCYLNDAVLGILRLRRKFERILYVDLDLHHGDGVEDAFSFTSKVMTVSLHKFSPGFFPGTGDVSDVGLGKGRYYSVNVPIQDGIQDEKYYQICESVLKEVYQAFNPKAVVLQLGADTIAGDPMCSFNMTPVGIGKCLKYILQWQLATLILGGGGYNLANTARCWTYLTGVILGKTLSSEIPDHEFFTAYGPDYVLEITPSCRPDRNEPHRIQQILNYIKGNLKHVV

[3] = system: bovine brain tubulin; assay: Tubulin polymerization assay; assay type: biochemical; settings: 10 μM
[4] = Homo sapiens, RD, read-out: IC50 against cancer cell lines

## CC(=O)OC1c2c(ccc3ccc(=O)oc23)OC(C)(C)C1OC(=O)C(C)(O)C(C)O (stereo not shown) [Hyuganin E, hyuganin E]
[1]; Hep2, HCT116, and MCF7
  SI (good selectivity), Hep2, HCT116, and MCF7: > 3
[1]; read-out: IC50 values against Hep2, HCT116, and MCF7, Hep2, HCT116, and MCF7
  IC50: < 25 µM

## O=c1ccc2ccc3occc3c2o1 [Angelicin, angelicin]
[1]; [4]
  IC50: < 20 µM
[1]; tested cancer cell lines (extract and quercetin: except RD cells)
  SI against cancer cell lines: > 7

## CC[C@H](CC[C@@H](C)[C@H]1CC[C@H]2[C@@H]3CC=C4C[C@@H](O[C@@H]5O[C@H](CO)[C@@H](O)[C@H](O)[C@H]5O)CC[C@]4(C)[C@H]3CC[C@]12C)C(C)C [β-Sitosterol-3-O-glucoside, β-sitosterol-3-O-glucoside]
[2]
  Percentage inhibition HDAC8 activity: stimulated HDAC8 activity

## O=c1cc(-c2ccc(O)c(O)c2)oc2cc(O)cc(O)c12 [Luteolin, luteolin]
[1]; [4]
  IC50: < 20 µM

## O=Cc1ccc(CO)o1 [5-(hydroxymethyl)-2-furaldehyde]
[2]
  Percentage inhibition HDAC8 activity: < 30%

## O=c1c(O)c(-c2ccc(O)c(O)c2)oc2cc(O)cc(O)c12 [Quercetin, quercetin]
[1]; [4]
  IC50: < 20 µM

## Nc1ncnc2c1ncn2[C@@H]1O[C@H](CO)[C@@H](O)[C@H]1O [Adenosine, adenosine]
[2]
  Percentage inhibition HDAC8 activity: stimulated HDAC8 activity

## O=C(/C=C/c1ccc(O)c(O)c1)O[C@@H]1C[C@](O)(C(=O)O)C[C@@H](O)[C@H]1O [Chlorogenic acid, chlorogenic acid]
[3]
  Percentage inhibition tubulin polymerization: moderate inhibition
